# Experiments:
# Type in all cases: cell-based, influenza A virus
# [1] = test system: influenza A/Puerto Rico/8/34 (PR/8, H1N1)
# [2] = test system: influenza A/Puerto Rico/8/34 (PR/8, H1N1); design: inhibition of hemagglutination: dose or concentration left out as unconfirmed
# [3] = test system: Influenza A/Philippines X-79 (H3N2); details: 74,000 nM monovalent LSTc; data not shown
substance,measurement,setting,value
sialylneolacto-N-tetraose c [Monovalent LSTc],inhibition of PR/8 infection of MDCK cells (FIG. 3A),[1],did not significantly inhibited infection at high concentrations
same,inhibition of infectivity of PR/8,"[1]; 74,000 nM monovalent LSTc",did not inhibit the infectivity
same,inhibition of hemagglutination,[2],did not inhibit hemagglutination
same,HAI Titer,"[2]; four HA units of virus, human RBCs, reciprocal of last liposome dilution giving non-agglutinated RBCs",No inhibition
same,inhibition of infectivity of Philippines,[3],did not inhibit the infectivity
